Measurements published in patent US11130769B2 (Prelude Therapeutics Incorporated, priority 2018, dated 2021).
Like-named read-outs stand apart in the source and are kept apart here.

Tests used:
MCL-1 = MCL-1 (Homo sapiens (Human), UniProt Q07820); test: Cell free Mcl-1:Bim affinity assay (fluorescence polarization competition); type: binding; details: 15 nM MCL-1, 5 nM FITC-Bim, 1 hour at room temperature, read-out: BIM_Ki
Procedure: The binding affinity of each compound was measured via a fluorescence polarization competition assay, in which the compound competes for the same binding site with the ligand, and thus leads to a dose-dependent anisotropy reduction. The tracer ligand utilized was a fluorescein isothiocyanate labelled peptide (FITC-[…]) derived from Bim (GenScript).
The assay was carried out in black half-area 96-well NBS plate (Corning), containing 15 nM of MCL-1 (BPS Bioscience), 5 nM of FITC-Bim and 3-fold serial diluted test compounds in a total volume of 50 μL of assay buffer (20 mM HEPES, 50 mM NaCl, 0.002% Tween 20, 1 mM TCEP, and 1% DMSO). The reaction plate was incubated for 1 hour at room temperature. The change of anisotropy is measured with an Envision multimode plate reader (PerkinElmer) at emission wavelength 535 nm. Fluorescence polarization was calculated in mP unit and the percentage inhibition was calculated by % inhibition=100×(mPDMSO−mP)/(mPDMSO−mPPC), in which mPDMSO is the DMSO control, and mPpc is the positive control. IC50 values were determined from a 10-point dose response curve by fitting the percent inhibition against compound concentration using the GraphPad Prism software. The inhibition constant Ki was subsequently calculated according to the Nikolovska-Coleska's equation (Anal. Biochem., 2004, 332, 261),
[formula] • where [I]50 is the concentration of the free inhibitor at 50% inhibition, [L]50 is the concentration of the free labeled ligand at 50% inhibition, [P]0 is the concentration of the free protein at 0% inhibition, and Kd is the dissociation constant of the protein-ligand complex. See Table F. Caspase 3/7 Activity Assay

H929 cells = test: Cell viability assay (H929 10 FBS); type: cell-based; details: Homo sapiens, NCI-H929, 24 hours, read-out: H929_10FBS IC50
Procedure: Cell Viability Assay (H929 10 FBS)
Dispense 10 μL aliquot of prepared H929 cells (1:1 ratio of cells:Trypan Blue (#1450013, Bio-Rad)) onto cell counting slide (#145-0011, Bio-Rad) and obtain cell density and cell viability using cell counter (TC20, Bio-Rad). Remove appropriate volume of resuspended cells from culture flask to accommodate 4000 cells/well @ 10 μL/well. Transfer H929 cells to 50 mL conical (#430290, Corning). Spin down at 1000 rpm for 5 min using tabletop centrifuge (SPINCHRON 15, Beckman). Discard supernatant and resuspend cell pellet in modified RPMI 1640 (#10-040-CV, Corning) cell culture media containing 10% FBS (F2422-500 ML, Sigma), sodium pyruvate (100 mM) (#25-000-CL, Corning), HEPES buffer (1 M) (#25-060-CL, Corning) and glucose (200 g/L) (A24940-01, Gibco) to a cell density of 400,000 cells/mL. Dispense 10 μL of resuspended H929 cells per well in 384-well small volume TC treated plate (#784080, Greiner Bio-one) using standard cassette (#50950372, Thermo Scientific) on Multi-drop Combi (#5840310, Thermo Scientific) in laminar flow cabinet. Dispense compounds onto plates using digital liquid dispenser (D300E, Tecan). Incubate plates in humidified tissue culture incubator @ 37° C. for 24 hours. Add 10 μL of prepared CellTiTer-Glo® detection buffer (G7570, Promega) or ATPlite 1 Step detection reagent (#6016731, Perkin Elmer) to each well of 384-well plate using small tube cassette (#24073295, Thermo Scientific) on Combi multi drop, incubate @ RT for 30-60 min. Read plates with microplate reader (PheraStar, BMG Labtech) using 384 well luminescence mode.

MCL-1, sequence (Q07820 whole entry): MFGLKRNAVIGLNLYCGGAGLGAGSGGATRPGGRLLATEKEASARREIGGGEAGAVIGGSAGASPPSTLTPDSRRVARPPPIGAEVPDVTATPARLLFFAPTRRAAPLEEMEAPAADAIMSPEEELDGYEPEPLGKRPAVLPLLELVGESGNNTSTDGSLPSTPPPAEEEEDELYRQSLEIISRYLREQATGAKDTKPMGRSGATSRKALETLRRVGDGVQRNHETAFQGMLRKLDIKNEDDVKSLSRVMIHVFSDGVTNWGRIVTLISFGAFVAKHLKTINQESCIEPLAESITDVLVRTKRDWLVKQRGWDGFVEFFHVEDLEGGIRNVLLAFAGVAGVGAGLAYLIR

Row | SMILES | Ki (MCL-1; class symbols) | IC50 (H929 cells) | Ki (MCL-1; numeric values)
1 | CO[C@@H]1/C=C/CN[C@@H](C)C(=O)NS(=O)(=O)c2ccc3c(c2)N(C[C@@H]2CC[C@H]21)C[C@@]1(CCCc2cc(Cl)ccc21)CO3 [Example 117, (3R,6R,7R,8E,12S,22S)-6′-Chloro-7-methoxy-12-methyl-15,15-dioxo-spiro[20-oxa-15-thia-1,11,14-triazatetracyclo[14.7.2.03,6.019,24]pentacosa-8,16(25),17,19(24)-tetraene-22,1′-tetralin]-13-one] | 1 to 100 nM | > 1000 nM | –
2 | CO[C@@H]1/C=C\CNC(=O)NS(=O)(=O)c2ccc3c(c2)N(C[C@@H]2CC[C@H]21)C[C@@]1(CCCc2cc(Cl)ccc21)CO3 [Example 130, (3R,6R,7R,8Z,21S)-6′-Chloro-7-methoxy-14,14-dioxo-spiro[19-oxa-14-thia-1,11,13-triazatetracyclo[13.7.2.03,6.018,23]tetracosa-8,15,17,23-tetraene-21,1′-tetralin]-12-one] | 1 to 100 nM | > 1000 nM | –
3 | CC1(C)OC/C=C/[C@H](OCCN2C[C@@H](F)[C@@H](F)C2)[C@@H]2CC[C@H]2CN2C[C@@]3(CCCc4cc(Cl)ccc43)COc3ccc(cc32)S(=O)(=O)NC1=O [Example 269, (3R,6R,7S,8E,22S)-6′-Chloro-7-[2-[(3R,4S)-3,4-difluoropyrrolidin-1-yl]ethoxy]-12,12-dimethyl-15,15-dioxo-spiro[11,20-dioxa-15-thia-1,14-diazatetracyclo[14.7.2.03,6.019,24]pentacosa-8,16,18,24-tetraene-22,1′-tetralin]-13-one] | < 1 nM | < 500 nM | –
4 | CO[C@@H]1/C=C/CN(C)CC2(CCC2)C(=O)NS(=O)(=O)c2ccc3c(c2)N(C[C@@H]2CC[C@H]21)C[C@@]1(CCCc2cc(Cl)ccc21)CO3 [Example 27, (3R,6R,7R,8E,23S)-6′-Chloro-7-methoxy-11-methyl-13,13-(1,3-propylene)-16,16-dioxo-spiro[21-oxa-16-thia-1,11,15-triazatetracyclo[15.7.2.03,6.020,25]hexacosa[8,17(26),18,20(25)]tetraene-23,1′-tetralin]-14-one] | 1 to 100 nM | > 1000 nM | –
5 | CCCN1C/C=C/[C@H](OC(=O)N(C)C)[C@@H]2CC[C@H]2CN2C[C@@]3(CCCc4cc(Cl)ccc43)COc3ccc(cc32)S(=O)(=O)NC(=O)C1(C)C [Example 211, [(3R,6R,7S,8E,22S)-6′-Chloro-12,12-dimethyl-13,15,15-trioxo-11-propyl-spiro[20-oxa-15-thia-1,11,14-triazatetracyclo[14.7.2.03,6.019,24]pentacosa-8,16,18,24-tetraene-22,1′-tetralin]-7-yl] N,N-dimethylcarbamate] | < 1 nM | < 500 nM | –
6 | CC(C)N1CCN(CC2(O)/C=C/COC(C)(C)C(=O)NS(=O)(=O)c3ccc4c(c3)N(C[C@@H]3CC[C@H]32)C[C@@]2(CCCc3cc(Cl)ccc32)CO4)CC1 (stereo partly drawn) [Example 109, (3R,6R,8E,22S)-6′-Chloro-7-hydroxy-7-[(4-isopropylpiperazin-1-yl)methyl]-12,12-dimethyl-15,15-dioxo-spiro[11,20-dioxa-15-thia-1,14-diazatetracyclo[14.7.2.03,6.019,24]pentacosa-8,16,18,24-tetraene-22,1′-tetralin]-13-one] | 1 to 100 nM | > 1000 nM | –
7 | CN(C)CCO[C@@H]1/C=C/COC(C)(C)C(=O)NS(=O)(=O)c2ccc3c(c2)N(C[C@@H]2CC[C@H]21)C[C@@]1(CCCc2cc(Cl)ccc21)CO3 [Example 273, (3R,6R,7R,8E,22S)-6′-Chloro-7-[2-(dimethylamino)ethoxy]-12,12-dimethyl-15,15-dioxo-spiro[11,20-dioxa-15-thia-1,14-diazatetracyclo[14.7.2.03,6.019,24]pentacosa-8,16,18,24-tetraene-22,1′-tetralin]-13-one] | < 1 nM | < 1000 nM | –
8 | COC[C@@H]1OC/C=C/[C@@H](OC)[C@@H]2CC[C@H]2CN2C[C@@]3(CCCc4cc(Cl)ccc43)COc3ccc(cc32)S(=O)(=O)NC1=O [Example 125, (3R,6R,7R,8E,12S,22S)-6′-Chloro-7-methoxy-12-(methoxymethyl)-15,15-dioxo-spiro[11,20-dioxa-15-thia-1,14-diazatetracyclo[14.7.2.03,6.019,24]pentacosa-8,16(25),17,19(24)-tetraene-22,1′-tetralin]-13-one] | < 1 nM | > 1000 nM | –
9 | CC1(C)OC/C=C/[C@H](OCC(=O)N[C@H]2CCOC2)[C@@H]2CC[C@H]2CN2C[C@@]3(CCCc4cc(Cl)ccc43)COc3ccc(cc32)S(=O)(=O)NC1=O [Example 285, 2-[(3R,6R,7S,8E,22S)-6′-Chloro-12,12-dimethyl-13,15,15-trioxo-spiro[11,20-dioxa-15λ6-thia-1,14-diazatetracyclo[14.7.2.03,6.019,24]pentacosa-8,16,18,24-tetraene-22,1′-tetralin]-7-yl]oxy-N-[(3S)-tetrahydrofuran-3-yl]acetamide] | < 1 nM | < 500 nM | –
10 | CC1(C)OC/C=C/[C@H](OC(=O)NC2COC2)[C@@H]2CC[C@H]2CN2C[C@@]3(CCCc4cc(Cl)ccc43)COc3ccc(cc32)S(=O)(=O)NC1=O [Example 192, [(3R,6R,7S,8E,22S)-6′-Chloro-12,12-dimethyl-13,15,15-trioxo-spiro[11,20-dioxa-15-thia-1,14-diazatetracyclo[14.7.2.03,6.019,24]pentacosa-8,16,18,24-tetraene-22,1′-tetralin]-7-yl] N-(oxetan-3-yl)carbamate] | < 1 nM | < 500 nM | –
11 | CN(C)C(=O)CO[C@H]1/C=C/COC2(CC2)C(=O)NS(=O)(=O)c2ccc3c(c2)N(C[C@@H]2CC[C@H]21)C[C@@]1(CCCc2cc(Cl)ccc21)CO3 [Example 142, 2-[(3R,6R,7S,8E,22S)-6′-Chloro-12,12-ethylene-13,15,15-trioxo-spiro[11,20-dioxa-15-thia-1,14-diazatetracyclo[14.7.2.03,6.019,24]pentacosa-8,16,18,24-tetraene-22,1′-tetralin]-7-yl]oxy-N,N-dimethyl-acetamide] | < 1 nM | < 1000 nM | –
12 | CC(=O)NS(=O)(=O)c1ccc2c(c1)N(CC1CCC1)CC1(CCCc3cc(Cl)ccc31)CO2 (stereo not shown) [Example 1, N-[6′-Chloro-5-(cyclobutylmethyl)spiro[2,4-dihydro-1,5-benzoxazepine-3,1′-tetralin]-7-yl]sulfonylacetamide] | – | > 1000 nM | 45.6 nM
13 | CC1(C)OC/C=C/[C@H](OCCN2CCCC2)[C@@H]2CC[C@H]2CN2C[C@@]3(CCCc4cc(Cl)ccc43)COc3ccc(cc32)S(=O)(=O)NC1=O [Example 66, (3R,6R,7S,8E,22S)-6′-Chloro-12,12-dimethyl-15,15-dioxo-7-(2-pyrrolidin-1-ylethoxy)spiro[11,20-dioxa-15-thia-1,14-diazatetracyclo[14.7.2.03,6.019,24]pentacosa-8,16,18,24-tetraene-22,1′-tetralin]-13-one] | < 1 nM | < 500 nM | –
14 | CN(C)C(=O)O[C@@H]1/C=C/CN(C)C(C)(C)C(=O)NS(=O)(=O)c2ccc3c(c2)N(C[C@@H]2CC[C@H]21)C[C@@]1(CCCc2cc(Cl)ccc21)CO3 [Example 200, [(3R,6R,7R,8E,22S)-6′-Chloro-11,12,12-trimethyl-13,15,15-trioxo-spiro[20-oxa-15-thia-1,11,14-triazatetracyclo[14.7.2.03,6.019,24]pentacosa-8,16,18,24-tetraene-22,1′-tetralin]-7-yl] N,N-dimethylcarbamate] | 1 to 100 nM | < 500 nM | –
